What was measured:
[1] = test system: A549; assay: Cytotoxicity against human A549 cells; type: functional, cell-based
[2] = Cytotoxicity against human FR2 cells; type: cell-based
[3] = Cytotoxicity against human HL60 cells; type: functional, cell-based; conditions: HL-60
[4] = Cytotoxicity against human HCT116 cells; type: functional, cell-based; conditions: HCT-116
[5] = test system: MCF7; assay: Cytotoxicity against human MCF7 cells; type: functional, cell-based
[6] = Cytotoxicity against human MIAPaCa2 cells; type: functional, cell-based; conditions: MIA PaCa-2
[7] = target: T1, Histone deacetylase (Homo sapiens) (UniProt Q13547+O15379+Q9UBN7+Q92769+Q9UQL6+Q8WUI4+Q9BY41+Q96DB2+P56524+Q9UKV0+Q969S8); assay: Inhibition of HDAC (unknown origin) at 50 uM; type: protein assay
[8] = target: T1, Histone deacetylase (Homo sapiens); assay: Inhibition of HDAC (unknown origin) at 30 uM; type: protein assay
[9] = target: Histone deacetylase; assay: Inhibition of HDAC (unknown origin); type: protein assay, Homo sapiens
[10] = test system: HL-60; assay: Induction of apoptosis in human HL60 cells assessed as loss of mitochondrial membrane potential in P5 quadrant at 1 uM by Rhodamine123 assay (reference value: 3.4%); type: functional
[11] = Cell cycle arrest in human HL60 cells assessed as accumulation at G1 phase at 1 uM by propidium iodide staining-based flow cytometry (reference value: 58.9%); type: functional; conditions: HL-60
[12] = test system: HL-60; assay: Induction of apoptosis in human HL60 cells assessed as loss of mitochondrial membrane potential in P4 quadrant at 1 uM by Rhodamine123 assay (reference value: 96.6%); type: functional
[13] = Cell cycle arrest in human HL60 cells assessed as accumulation at sub-G1 phase at 1 uM by propidium iodide staining-based flow cytometry (reference value: 2.1%); type: functional; conditions: HL-60
[14] = Cell cycle arrest in human HL60 cells assessed as accumulation at S phase at 1 uM by propidium iodide staining-based flow cytometry (reference value: 17.3%); type: functional; conditions: HL-60
[15] = Cell cycle arrest in human HL60 cells assessed as accumulation at G2/M phase at 1 uM by propidium iodide staining-based flow cytometry (reference value: 21.3%); type: functional; conditions: HL-60

SMILES	IC50 [1]	IC50 [2]	IC50 [3]	IC50 [4]	IC50 [5]	IC50 [6]	inhibition [7]	inhibition [8]	IC50 [9]	Activity [10]	Activity [11]	Activity [12]	Activity [13]	Activity [14]	Activity [15]
COC(=O)CCCCC(=O)N[C@]1(C)[C@@H]2CC[C@]3(C)[C@H](C(=O)C=C4[C@@H]5[C@@H](C)[C@H](C)CC[C@]5(C)CC[C@]43C)[C@@]2(C)CC[C@H]1OC(C)=O	15.1 µM	> 20 µM	> 20 µM	15.1 µM	15.1 µM	15.1 µM	–	–	–	–	–	–	–	–	–
COC(=O)CCCCCCC(=O)N[C@]1(C)[C@@H]2CC[C@]3(C)[C@H](CC=C4[C@@H]5[C@@H](C)[C@H](C)CC[C@]5(C)CC[C@]43C)[C@@]2(C)CC[C@H]1OC(C)=O	> 20 µM	> 20 µM	> 20 µM	> 20 µM	> 20 µM	> 20 µM	–	–	–	–	–	–	–	–	–
C[C@H]1[C@H](C)CC[C@]2(C)CC[C@]3(C)C(=CC(=O)[C@@H]4[C@@]5(C)CC[C@@H](O)[C@](C)(NC(=O)CCCCCCCC(=O)NO)[C@@H]5CC[C@]43C)[C@H]12	> 20 µM	> 20 µM	> 20 µM	12 µM	11 µM	> 20 µM	52%	31%	48 µM	–	–	–	–	–	–
C[C@H]1[C@H](C)CC[C@]2(C)CC[C@]3(C)C(=CC[C@@H]4[C@@]5(C)CC[C@@H](O)[C@](C)(NC(=O)CCCCC(=O)O)[C@@H]5CC[C@]43C)[C@H]12	> 20 µM	> 20 µM	> 20 µM	> 20 µM	> 20 µM	> 20 µM	–	–	–	–	–	–	–	–	–
C[C@H]1[C@H](C)CC[C@]2(C)CC[C@]3(C)C(=CC(=O)[C@@H]4[C@@]5(C)CC[C@@H](O)[C@](C)(NC(=O)CCCCCCCC(=O)O)[C@@H]5CC[C@]43C)[C@H]12	> 20 µM	16.6 µM	7.5 µM	> 20 µM	15.1 µM	> 20 µM	–	–	–	–	–	–	–	–	–
C[C@H]1[C@H](C)CC[C@]2(C)CC[C@]3(C)C(=CC[C@@H]4[C@@]5(C)CC[C@@H](O)[C@](C)(NC(=O)CCCCCCC(=O)O)[C@@H]5CC[C@]43C)[C@H]12	> 20 µM	> 20 µM	> 20 µM	> 20 µM	> 20 µM	> 20 µM	–	–	–	–	–	–	–	–	–
COC(=O)CCCCCCCC(=O)N[C@]1(C)[C@@H]2CC[C@]3(C)[C@H](C(=O)C=C4[C@@H]5[C@@H](C)[C@H](C)CC[C@]5(C)CC[C@]43C)[C@@]2(C)CC[C@H]1OC(C)=O	10 µM	17.2 µM	10 µM	18 µM	2 µM	6.1 µM	–	–	–	–	–	–	–	–	–
CC(=O)O[C@@H]1CC[C@]2(C)[C@H]3C(=O)C=C4[C@@H]5[C@@H](C)[C@H](C)CC[C@]5(C)CC[C@@]4(C)[C@]3(C)CC[C@H]2[C@@]1(C)N	6 µM	7.1 µM	6.1 µM	15.3 µM	14 µM	15.1 µM	–	–	–	–	–	–	–	–	–
O=C(CCCCCCC(=O)Nc1ccccc1)NO [VORINOSTAT]	–	–	–	–	–	–	–	–	–	4%	65.3%	96%	2.8%	14%	17.1%
C[C@H]1[C@H](C)CC[C@]2(C)CC[C@]3(C)C(=CC(=O)[C@@H]4[C@@]5(C)CC[C@@H](O)[C@](C)(NC(=O)CCCCCCC(=O)O)[C@@H]5CC[C@]43C)[C@H]12	2.9 µM	> 20 µM	> 20 µM	> 20 µM	> 20 µM	8.6 µM	–	–	–	–	–	–	–	–	–
C[C@H]1[C@H](C)CC[C@]2(C)CC[C@]3(C)C(=CC[C@@H]4[C@@]5(C)CC[C@@H](O)[C@](C)(NC(=O)CCCC(=O)NO)[C@@H]5CC[C@]43C)[C@H]12	> 20 µM	> 20 µM	11.7 µM	> 20 µM	3.6 µM	8.8 µM	54%	46%	34 µM	–	–	–	–	–	–
C[C@H]1[C@H](C)CC[C@]2(C)CC[C@]3(C)C(=CC(=O)[C@@H]4[C@@]5(C)CC[C@@H](O)[C@](C)(NC(=O)CCCCC(=O)NO)[C@@H]5CC[C@]43C)[C@H]12	3.1 µM	7.2 µM	6.6 µM	> 20 µM	> 20 µM	13.1 µM	57%	37%	42 µM	–	–	–	–	–	–
COC(=O)CCCC(=O)N[C@]1(C)[C@@H]2CC[C@]3(C)[C@H](C(=O)C=C4[C@@H]5[C@@H](C)[C@H](C)CC[C@]5(C)CC[C@]43C)[C@@]2(C)CC[C@H]1OC(C)=O	7.4 µM	> 20 µM	17.6 µM	> 20 µM	> 20 µM	> 20 µM	–	–	–	–	–	–	–	–	–
CC(=O)O[C@@H]1CC[C@]2(C)[C@H]3CC=C4[C@@H]5[C@@H](C)[C@H](C)CC[C@]5(C)CC[C@@]4(C)[C@]3(C)CC[C@H]2[C@@]1(C)N	13.2 µM	13.9 µM	10 µM	8.7 µM	6.9 µM	7.2 µM	–	–	–	–	–	–	–	–	–
C[C@H]1[C@H](C)CC[C@]2(C)CC[C@]3(C)C(=CC[C@@H]4[C@@]5(C)CC[C@@H](O)[C@](C)(NC(=O)CCCCCCCC(=O)O)[C@@H]5CC[C@]43C)[C@H]12	> 20 µM	> 20 µM	> 20 µM	> 20 µM	16.5 µM	15.9 µM	–	–	–	–	–	–	–	–	–
COC(=O)CCCCC(=O)N[C@]1(C)[C@@H]2CC[C@]3(C)[C@H](CC=C4[C@@H]5[C@@H](C)[C@H](C)CC[C@]5(C)CC[C@]43C)[C@@]2(C)CC[C@H]1OC(C)=O	> 20 µM	> 20 µM	> 20 µM	> 20 µM	13.8 µM	> 20 µM	–	–	–	–	–	–	–	–	–
C[C@H]1[C@H](C)CC[C@]2(C)CC[C@]3(C)C(=CC(=O)[C@@H]4[C@@]5(C)CC[C@@H](O)[C@](C)(NC(=O)CCCC(=O)O)[C@@H]5CC[C@]43C)[C@H]12	6.6 µM	> 20 µM	> 20 µM	7.1 µM	11.1 µM	6 µM	–	–	–	–	–	–	–	–	–
C[C@H]1[C@H](C)CC[C@]2(C)CC[C@]3(C)C(=CC[C@@H]4[C@@]5(C)CC[C@@H](O)[C@](C)(NC(=O)CCCCCCCC(=O)NO)[C@@H]5CC[C@]43C)[C@H]12	15 µM	> 20 µM	12.4 µM	11.8 µM	6.4 µM	11.9 µM	45%	34%	> 50 µM	–	–	–	–	–	–
C[C@H]1[C@H](C)CC[C@]2(C)CC[C@]3(C)C(=CC(=O)[C@@H]4[C@@]5(C)CC[C@@H](O)[C@](C)(NC(=O)CCCCC(=O)O)[C@@H]5CC[C@]43C)[C@H]12	19.1 µM	> 20 µM	> 20 µM	> 20 µM	18 µM	14.1 µM	–	–	–	–	–	–	–	–	–
C[C@H]1[C@H](C)CC[C@]2(C)CC[C@]3(C)C(=CC(=O)[C@@H]4[C@@]5(C)CC[C@@H](O)[C@](C)(NC(=O)CCCCCCC(=O)NO)[C@@H]5CC[C@]43C)[C@H]12	6.9 µM	4.3 µM	3 µM	5.2 µM	4 µM	8.7 µM	39%	12%	> 50 µM	–	–	–	–	–	–
COC(=O)CCCCCCCC(=O)N[C@]1(C)[C@@H]2CC[C@]3(C)[C@H](CC=C4[C@@H]5[C@@H](C)[C@H](C)CC[C@]5(C)CC[C@]43C)[C@@]2(C)CC[C@H]1OC(C)=O	> 20 µM	> 20 µM	> 20 µM	> 20 µM	17 µM	> 20 µM	–	–	–	–	–	–	–	–	–
C[C@H]1[C@H](C)CC[C@]2(C)CC[C@]3(C)C(=CC[C@@H]4[C@@]5(C)CC[C@@H](O)[C@](C)(NC(=O)CCCC(=O)O)[C@@H]5CC[C@]43C)[C@H]12	> 20 µM	> 20 µM	13.4 µM	> 20 µM	14.3 µM	11 µM	–	–	–	–	–	–	–	–	–
C[C@H]1[C@H](C)CC[C@]2(C)CC[C@]3(C)C(=CC[C@@H]4[C@@]5(C)CC[C@@H](O)[C@](C)(NC(=O)CCCCC(=O)NO)[C@@H]5CC[C@]43C)[C@H]12	> 20 µM	> 20 µM	> 20 µM	> 20 µM	4.4 µM	11.8 µM	–	–	–	–	–	–	–	–	–
COC(=O)CCCCCCC(=O)N[C@]1(C)[C@@H]2CC[C@]3(C)[C@H](C(=O)C=C4[C@@H]5[C@@H](C)[C@H](C)CC[C@]5(C)CC[C@]43C)[C@@]2(C)CC[C@H]1OC(C)=O	2 µM	> 20 µM	> 20 µM	15.7 µM	< 0.25 µM	8 µM	–	–	–	–	–	–	–	–	–
COC(=O)CCCC(=O)N[C@@]1(C)[C@H](OC(C)=O)CC[C@]2(C)C3CC=C4[C@@H]5[C@@H](C)[C@H](C)CC[C@]5(C)CC[C@@]4(C)[C@]3(C)CC[C@@H]12 (single isomer, unassigned)	> 20 µM	> 20 µM	17.1 µM	19 µM	8.7 µM	11.4 µM	–	–	–	–	–	–	–	–	–

From ChEMBL document CHEMBL3351412, “Design, synthesis and biological evaluation of β-boswellic acid based HDAC inhibitors as inducers of cancer cell death” (Bioorg Med Chem Lett, 2014)
